Assay [1] addresses T1, Mucolipin-3 (Homo sapiens, UniProt Q8TDD5).
T1 sequence (Q8TDD5 whole entry): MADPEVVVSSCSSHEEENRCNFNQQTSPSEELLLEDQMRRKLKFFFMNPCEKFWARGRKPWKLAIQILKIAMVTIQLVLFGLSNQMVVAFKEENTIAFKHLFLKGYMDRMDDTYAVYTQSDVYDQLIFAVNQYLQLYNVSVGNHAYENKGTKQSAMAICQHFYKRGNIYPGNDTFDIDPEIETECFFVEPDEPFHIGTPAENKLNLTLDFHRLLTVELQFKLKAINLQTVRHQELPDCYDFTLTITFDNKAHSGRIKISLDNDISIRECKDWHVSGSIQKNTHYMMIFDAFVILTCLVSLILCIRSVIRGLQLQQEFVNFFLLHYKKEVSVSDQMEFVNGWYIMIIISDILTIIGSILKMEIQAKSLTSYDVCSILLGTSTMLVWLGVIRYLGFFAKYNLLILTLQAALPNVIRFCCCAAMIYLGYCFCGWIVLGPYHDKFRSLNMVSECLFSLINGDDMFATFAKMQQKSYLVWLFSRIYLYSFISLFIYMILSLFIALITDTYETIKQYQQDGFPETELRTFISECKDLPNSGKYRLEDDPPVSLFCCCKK
The assay is described as follows: Dose response cell-based high-throughput screening assay for agonists of the transient receptor potential channel ML3 (TRPML3). [Related pubchem assays: 1526, 1424, 1448 ]. The format is functional.

Assay [2] deals with T1, Mucolipin-3. The assay is described as follows: TRPML3 agonist potency, dose response, cell-based, calcium fluorescence (AID 2510). The format is functional.
Assay [3] deals with T2, Ion channel NompC (Danio rerio, UniProt Q7T1G6). The assay is described as follows: Late stage counterscreen for the probe development effort to identify selective agonists of the Transient Receptor Potential Channels 3 (TRPML3): fluorescence-based cell-based dose response assay for TRPN1 agonists. It counts as functional. A general note: A counterscreen serves to expose hits that act by an unwanted route or on another target.
T2 sequence (Q7T1G6 whole entry): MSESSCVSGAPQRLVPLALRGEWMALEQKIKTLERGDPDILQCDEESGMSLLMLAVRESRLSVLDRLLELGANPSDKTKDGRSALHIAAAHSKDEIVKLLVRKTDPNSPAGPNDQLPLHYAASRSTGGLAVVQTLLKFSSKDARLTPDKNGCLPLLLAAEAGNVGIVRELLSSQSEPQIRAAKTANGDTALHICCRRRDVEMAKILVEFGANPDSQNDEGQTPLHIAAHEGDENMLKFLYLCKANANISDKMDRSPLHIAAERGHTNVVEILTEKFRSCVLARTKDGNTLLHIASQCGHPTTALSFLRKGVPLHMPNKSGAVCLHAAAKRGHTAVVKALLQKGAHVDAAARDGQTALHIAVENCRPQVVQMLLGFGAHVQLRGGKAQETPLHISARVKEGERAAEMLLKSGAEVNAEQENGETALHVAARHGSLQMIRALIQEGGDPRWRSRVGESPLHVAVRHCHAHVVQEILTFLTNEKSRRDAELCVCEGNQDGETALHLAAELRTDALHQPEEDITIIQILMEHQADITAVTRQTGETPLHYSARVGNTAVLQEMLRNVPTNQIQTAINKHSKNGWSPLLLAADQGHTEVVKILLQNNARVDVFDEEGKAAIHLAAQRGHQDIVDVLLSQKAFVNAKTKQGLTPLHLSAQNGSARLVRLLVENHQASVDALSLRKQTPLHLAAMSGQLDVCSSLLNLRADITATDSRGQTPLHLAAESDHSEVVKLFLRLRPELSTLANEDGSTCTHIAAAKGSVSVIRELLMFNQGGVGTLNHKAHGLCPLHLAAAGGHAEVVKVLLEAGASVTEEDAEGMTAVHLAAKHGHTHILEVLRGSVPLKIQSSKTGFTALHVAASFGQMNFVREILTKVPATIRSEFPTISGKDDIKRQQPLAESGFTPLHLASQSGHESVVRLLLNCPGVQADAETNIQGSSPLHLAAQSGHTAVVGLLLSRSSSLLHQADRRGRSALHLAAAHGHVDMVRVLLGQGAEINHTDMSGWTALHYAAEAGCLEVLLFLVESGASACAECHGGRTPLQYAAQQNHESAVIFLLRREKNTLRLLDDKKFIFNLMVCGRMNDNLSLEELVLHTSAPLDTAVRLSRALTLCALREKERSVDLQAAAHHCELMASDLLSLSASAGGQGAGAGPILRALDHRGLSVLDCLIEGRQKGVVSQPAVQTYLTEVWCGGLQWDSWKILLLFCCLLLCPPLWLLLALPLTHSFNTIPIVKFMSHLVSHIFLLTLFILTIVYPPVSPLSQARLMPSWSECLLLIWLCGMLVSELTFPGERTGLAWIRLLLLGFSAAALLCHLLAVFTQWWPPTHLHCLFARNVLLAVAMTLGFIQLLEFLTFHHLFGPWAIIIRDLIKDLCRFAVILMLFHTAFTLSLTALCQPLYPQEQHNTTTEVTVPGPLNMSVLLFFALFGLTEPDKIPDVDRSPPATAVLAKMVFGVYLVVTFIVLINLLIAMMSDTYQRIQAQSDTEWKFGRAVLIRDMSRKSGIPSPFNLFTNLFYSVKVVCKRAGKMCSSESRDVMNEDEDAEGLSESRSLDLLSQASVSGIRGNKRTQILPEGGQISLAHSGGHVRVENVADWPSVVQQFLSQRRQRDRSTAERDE

The target in assay [4] is T2, Ion channel NompC. The assay is described as follows: Fluorescence counterscreen assay for TRPML3 agonists: dose response cell-based high-throughput screening assay to identify agonists of the transient receptor potential channel N1 (TRPN1). [Related pubchem assays: 1526, 1424, 1448 ]. It counts as functional.
Assay [5] has as its target Induced myeloid leukemia cell differentiation protein Mcl-1 (Homo sapiens, UniProt Q07820). It counts as functional.
The next assay addresses Prothrombin (Homo sapiens, UniProt P00734). The assay is described as follows: Thrombin 1536 HTS Dose Response Confirmation. [Related pubchem assays: 1046 (Thrombin 1536 HTS; hits were confirmed in this assay)]. It counts as functional.
Assay [6] is described as follows: HeLa 4N DNA content increase, dose response, cell-based, IC50 (AID 1117351). The format is functional.
Assay [7] is described as follows: HCT116 cell viability decrease, GSK3B pretreatment – CellTiter-Glo, IC50, dose response (AID 1117339). It counts as functional. Conditions: HCT-116. (Cellular ATP, detected with luciferase, serves as a proxy for viable cell number.)
In assay [8] the target is Delta-type opioid receptor (Homo sapiens, UniProt P41143). The assay is described as follows: Counterscreen for agonists of heterodimerization of the mu 1 (OPRM1) and delta 1 (OPRD1) opioid receptors: Luminescence-based cell-based high throughput dose response assay to identify agonists of OPRD1 homodimerization. [Related pubchem assays (depositor defined):AID504326, AID504355, AID504692, AID504904, AID504905]. The format is functional.
Chain of Delta-type opioid receptor (P41143 whole entry): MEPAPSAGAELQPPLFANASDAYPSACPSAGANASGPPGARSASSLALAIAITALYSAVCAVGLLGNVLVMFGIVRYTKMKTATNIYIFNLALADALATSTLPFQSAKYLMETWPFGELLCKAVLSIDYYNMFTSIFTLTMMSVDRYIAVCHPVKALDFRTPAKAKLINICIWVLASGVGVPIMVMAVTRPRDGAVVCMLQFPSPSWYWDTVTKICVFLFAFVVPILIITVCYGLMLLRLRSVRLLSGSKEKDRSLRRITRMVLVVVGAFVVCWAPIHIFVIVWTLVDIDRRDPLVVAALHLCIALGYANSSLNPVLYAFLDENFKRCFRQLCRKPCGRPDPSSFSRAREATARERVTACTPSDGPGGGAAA

Assay [9] in a line: cytotoxicity toward HCT116 cells – cell-based, CellTiter-Glo luminescence, IC50, dose response (AID 1117332). Conditions: HCT-116. It counts as functional.
Assay [10] can be described thus: HeLa 2N DNA content increase, dose response, cell-based, IC50 (AID 1117349). It counts as functional.
Assay [11] can be described thus: cytotoxicity toward HT-29 cells – cell-based, CellTiter-Glo luminescence, IC50, dose response (AID 1117330). The format is functional.
Assay [12] in a line: SNU-C1 cell viability reduction, dose response, CellTiter-Glo luminescence (AID 1117323). It counts as functional, cell-based.
A short description of assay [13]: RKO cell viability reduction, dose response, CellTiter-Glo luminescence (AID 1117322). It counts as functional.
Assay [14] is described as follows: CellTiter-Glo luminescent dose response of DLD-1 viability loss (AID 1117352). The format is functional.
The nature of assay [15]: cytotoxicity toward Colo320 cells – cell-based, CellTiter-Glo luminescence, IC50, dose response (AID 1117334). It counts as functional. Conditions: COLO 320.
The next assay concerns the target Mu-type opioid receptor (Homo sapiens, UniProt P35372). Put plainly: Counterscreen for agonists of heterodimerization of the mu 1 (OPRM1) and delta 1 (OPRD1) opioid receptors: Luminescence-based cell-based high throughput dose response assay to identify agonists of OPRM1 homodimerization. It counts as functional.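 Also: U2OS cells expressing OPRM1 and beta-arrestin as split beta-galactosidase partners.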
Assay [16] in a line: Concentration-dependent survival of SW480 colon cancer line, luminescence detection with CellTiter-Glo, half-maximal inhibitory concentration (AID 1117338). It counts as functional.
In assay [17] the target is 5-hydroxytryptamine receptor 5A (Homo sapiens, UniProt P47898). Put plainly: Counterscreen for agonists of OPRM1-OPRD1 heterodimerization: luminescence-based cell-based high throughput dose response assay to identify agonists of 5-hydroxytryptamine (serotonin) 5A receptor (HTR5A). [Related pubchem assays (depositor defined):AID504326, AID504355, AID504692, AID504904, AID504905]. It counts as functional.
Chain of 5-hydroxytryptamine receptor 5A (P47898 whole entry): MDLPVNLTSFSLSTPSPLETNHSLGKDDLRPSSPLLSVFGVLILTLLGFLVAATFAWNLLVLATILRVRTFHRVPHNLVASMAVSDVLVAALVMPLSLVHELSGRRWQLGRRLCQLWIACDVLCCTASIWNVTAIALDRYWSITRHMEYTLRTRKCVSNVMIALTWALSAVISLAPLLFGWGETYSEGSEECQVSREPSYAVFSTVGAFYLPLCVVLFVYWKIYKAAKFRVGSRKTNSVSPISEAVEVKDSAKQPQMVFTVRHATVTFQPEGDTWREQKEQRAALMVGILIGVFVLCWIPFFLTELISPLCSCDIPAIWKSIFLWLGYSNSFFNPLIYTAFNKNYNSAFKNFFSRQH

A short description of assay [18]: M. tuberculosis growth inhibition, HTS (AID 449762). The format is functional.
Assay [19] is described as follows: A High Throughput Confirmatory Assay used to Identify Novel Compounds that Inhibit Mycobacterium Tuberculosis in the absence of Glycerol. It counts as functional.
Assay [20] can be described thus: MITF: Counter assay: A375 proliferation Measured in Cell-Based System Using Plate Reader - 2084-03_Inhibitor_Dose_DryPowder_Activity_Set8. It counts as functional. Conditions: A-375.
Assay [21] in a line: A375 melanoma cell viability loss, dose response, counter-screen for MITF modulator project, CellTiter-Glo luminescence, dry powder, set 9 (AID 651591). The format is functional, cell-based. As to conditions: A-375.
A short description of assay [22]: MALME3 melanoma cell viability reduction, dose response, orthogonal assay for MITF inhibitor project, CellTiter-Glo luminescence, dry powder, set 5 (AID 651584). Conditions: MALME-3. It counts as functional, cell-based.
A short description of assay [23]: MITF Orthogonal Assay: SK-MEL-5 CTG Assay Measured in Cell-Based System Using Plate Reader - 2084-02_Inhibitor_Dose_DryPowder_Activity_Set7. The format is functional.
The nature of assay [24]: MITF Orthogonal Assay: MALME3 CTG Assay Measured in Cell-Based System Using Plate Reader - 2084-04_Inhibitor_Dose_DryPowder_Activity_Set6. Conditions: MALME-3. It counts as functional.
A short description of assay [25]: TRPM1 promoter luciferase reporter signal decrease, dose response, MITF inhibitor project, cell-based, SK-MEL-5, dry powder, set 9 (AID 651588). It counts as functional.
Assay [26] in a line: TRPM1 promoter luciferase reporter signal decrease, dose response, MITF inhibitor project, cell-based, SK-MEL-5, dry powder, set 8 (AID 624430). It counts as functional. (A reporter such as luciferase makes a cellular process visible.)
A short description of assay [27]: SK-MEL-5 parental cell viability reduction, dose response, orthogonal assay for MITF inhibitor project, CellTiter-Glo luminescence, dry powder, set 8 (AID 651586). The format is functional, cell-based.
The subject of assay [28] is Vero. The assay is described as follows: West Nile virus antiviral activity, cell-based, CPE readout (AID 1621). As to conditions: Chlorocebus sabaeus. The format is functional.
In assay [29] the test system is Vero. Put plainly: host cell cytotoxicity of antiviral hits, dose response, cytotoxicity control for West Nile virus antiviral project, secondary assay (AID 1650). The format is functional. Conditions: Chlorocebus sabaeus.
The nature of assay [30]: cytotoxicity in OVCAR8 ovarian cancer cells, dose response, PAX8 project, cell-based, plate reader, dry powder samples (AID 743197). The format is functional. As to conditions: OVCAR-8.
For a further assay, the target named is Paired box protein Pax-8 (Homo sapiens, UniProt Q06710). The assay is described as follows: inhibitors of PAX8-driven TPO luciferase reporter, dose response, RMG-I cells, cherry-pick (AID 687027).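 Also: luciferase reporter driven by Pax8 target thyroperoxidase promoter measured by SteadyGlo luminescence.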 The format is functional, cell-based.
Chain of Paired box protein Pax-8 (Q06710 whole entry): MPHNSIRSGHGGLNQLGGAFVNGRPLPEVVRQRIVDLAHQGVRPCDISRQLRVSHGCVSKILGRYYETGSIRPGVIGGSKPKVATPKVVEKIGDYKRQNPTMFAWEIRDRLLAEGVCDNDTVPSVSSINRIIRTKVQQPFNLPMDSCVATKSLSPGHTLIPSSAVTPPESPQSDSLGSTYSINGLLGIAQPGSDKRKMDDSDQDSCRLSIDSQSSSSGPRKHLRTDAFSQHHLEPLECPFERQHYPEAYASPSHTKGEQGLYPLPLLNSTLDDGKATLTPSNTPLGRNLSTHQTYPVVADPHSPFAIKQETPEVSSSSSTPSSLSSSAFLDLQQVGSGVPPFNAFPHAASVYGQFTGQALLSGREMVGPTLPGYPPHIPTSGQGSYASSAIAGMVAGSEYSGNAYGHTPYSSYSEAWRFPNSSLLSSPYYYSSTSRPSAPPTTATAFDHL
A short description of assay [31]: IGROV1 ovarian cancer cell cytotoxicity, dose response, PAX8 inhibitor project, plate reader, dry powder samples (AID 743043). It counts as functional, cell-based. Conditions: IGROV-1.
A short description of assay [32]: NIH:OVCAR-3 ovarian cancer cell cytotoxicity, dose response, PAX8 inhibitor project, plate reader, dry powder samples (AID 743044). It counts as functional, cell-based.
Assay [33] concerns the target Ubiquitin carboxyl-terminal hydrolase BAP1 (Homo sapiens, UniProt Q92560). Put plainly: BAP1 deubiquitinase inhibitors, dose response, biochemical (AID 714). It counts as functional.

Each structure is given as a SMILES string. Several values for one entry are separate records, joined by “and”; a condition that tells them apart may be missing. Equal values may be shown once. Activity calls are given as the source filed them.

Chain of Ubiquitin carboxyl-terminal hydrolase BAP1 (Q92560 whole entry): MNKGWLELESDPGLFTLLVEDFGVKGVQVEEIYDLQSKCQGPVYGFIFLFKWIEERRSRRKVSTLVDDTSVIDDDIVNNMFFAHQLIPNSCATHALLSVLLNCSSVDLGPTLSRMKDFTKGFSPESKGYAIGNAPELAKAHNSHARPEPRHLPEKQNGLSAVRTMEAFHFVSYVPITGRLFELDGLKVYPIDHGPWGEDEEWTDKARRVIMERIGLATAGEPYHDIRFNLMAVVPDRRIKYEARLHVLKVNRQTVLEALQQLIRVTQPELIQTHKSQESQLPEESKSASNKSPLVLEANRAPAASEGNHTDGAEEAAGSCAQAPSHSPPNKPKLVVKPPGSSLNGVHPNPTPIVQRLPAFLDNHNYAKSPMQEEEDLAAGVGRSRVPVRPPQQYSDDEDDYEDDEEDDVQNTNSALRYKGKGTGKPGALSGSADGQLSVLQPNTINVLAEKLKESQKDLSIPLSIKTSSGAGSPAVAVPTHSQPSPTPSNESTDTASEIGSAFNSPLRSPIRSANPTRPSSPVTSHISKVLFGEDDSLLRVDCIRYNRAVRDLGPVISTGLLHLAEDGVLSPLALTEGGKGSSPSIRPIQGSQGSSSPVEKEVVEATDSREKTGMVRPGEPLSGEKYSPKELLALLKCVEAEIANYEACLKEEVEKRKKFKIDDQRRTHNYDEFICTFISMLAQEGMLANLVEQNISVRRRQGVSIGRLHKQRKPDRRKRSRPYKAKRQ
Chain of Mu-type opioid receptor (P35372 whole entry): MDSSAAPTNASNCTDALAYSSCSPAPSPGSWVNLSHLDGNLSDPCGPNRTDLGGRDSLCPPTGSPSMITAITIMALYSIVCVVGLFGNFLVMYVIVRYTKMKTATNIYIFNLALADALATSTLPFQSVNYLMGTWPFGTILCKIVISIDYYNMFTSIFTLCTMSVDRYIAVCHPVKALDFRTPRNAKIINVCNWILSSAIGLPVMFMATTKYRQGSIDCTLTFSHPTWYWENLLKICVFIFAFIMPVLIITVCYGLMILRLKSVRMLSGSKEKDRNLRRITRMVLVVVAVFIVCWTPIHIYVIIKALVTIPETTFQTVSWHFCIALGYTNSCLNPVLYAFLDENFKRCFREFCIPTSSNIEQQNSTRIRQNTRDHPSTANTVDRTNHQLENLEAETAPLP
Chain of Induced myeloid leukemia cell differentiation protein Mcl-1 (Q07820 whole entry): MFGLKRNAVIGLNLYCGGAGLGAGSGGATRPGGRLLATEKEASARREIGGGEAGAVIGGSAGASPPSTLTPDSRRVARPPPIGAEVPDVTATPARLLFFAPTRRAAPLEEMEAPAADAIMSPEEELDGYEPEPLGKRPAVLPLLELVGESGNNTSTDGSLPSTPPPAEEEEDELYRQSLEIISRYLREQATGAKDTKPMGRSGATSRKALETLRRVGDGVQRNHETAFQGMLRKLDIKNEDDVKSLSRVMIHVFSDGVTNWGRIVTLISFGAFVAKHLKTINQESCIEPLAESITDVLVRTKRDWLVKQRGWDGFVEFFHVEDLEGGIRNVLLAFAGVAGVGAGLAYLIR

In general, EC50 refers to the concentration that produces a half-maximal response. With `Cc1ccc(S(=O)(=O)n2nccc2-c2c(-c3ccccc3)noc2C)cc1`, the 50% effective concentration (EC50) on Mucolipin-3 [1] is 0.819 µM (active); at Mucolipin-3 [2] it was 1.01 µM (active); at Ion channel NompC [3], > 29.9 µM (not active); at Ion channel NompC [4], > 29.9 µM (not active).
For orientation: IC50 means the concentration needed to halve the response being measured. As for `O=[N+]([O-])c1ccc(-c2cc(O)n3nc(-c4ccc(Cl)cc4)cc3n2)cc1`, the IC50 was 1.72 µM (active) in assay [5] and > 50 µM (not active) against Prothrombin.
For the compound `CCC(COC(=O)c1cc(OC)c(OC)c(OC)c1)(c1ccccc1)N(C)C` (stereo unspecified), the IC50 in assay [6] is > 10 µM (inactive); in assay [7], 1.61 µM (active); in assay [9], > 20 µM (inactive); in [10], > 10 µM (inactive); in assay [11] it was > 20 µM (inactive); in [12] it was 2.45 µM (active). Moreover, the IC50 is 0.142 µM (active) in assay [13], > 20 µM (inactive) in [14], > 20 µM (inactive) in assay [15] and > 20 µM (inactive) in assay [16]. Besides, the EC50 is > 92.5 µM (inactive) and 65.1 µM (inactive) in [8]; > 92.5 µM (inactive) on Mu-type opioid receptor; > 92.5 µM (inactive) in [17].
Consider `CCCOc1cccc(C(=O)NC(=S)Nc2ccc(N3CCN(C)CC3)cc2)c1`, for which the IC50 in [18] and in assay [19] was > 100 µM (active) in each case.
In general, AC50 refers to the concentration at which the activity in the assay is half-maximal. Take `O=C1C(Nc2ccc(F)cc2)=C(N2CCCCC2)C(=O)c2ccccc21`: the AC50 in assay [20] was 57.6 µM (active); in assay [21], 27.4 µM (active); in assay [22], 14.1 µM (active); in assay [23] it was 8.64 µM (active); in assay [24], 14.1 µM (active); in assay [25] it was 8.63 µM (active). Moreover, the AC50 is 2.24 µM (active) in assay [26] and 25.8 µM (active) in [27].
The CC50 is the concentration at which the toxic effect on the cells reaches its halfway point. Take `CC(C)c1cc(C(C)C)c(S(=O)(=O)N2c3ccccc3[C@]3(Br)C[C@H]4C(=O)N[C@@H](Cc5ccccc5)C(=O)N4[C@H]23)c(C(C)C)c1`: the IC50 with Vero [28] was 39.9 µM (active). In the assay with Vero [29], the 50% cytotoxic concentration (CC50) is 13.7 µM (active).
On to `COc1ccc(CN(C)C[C@H]2OCCCC[C@H](C)Oc3ccc(NC(=O)Nc4ccc(C(F)(F)F)cc4)cc3C(=O)N([C@H](C)CO)C[C@H]2C)cc1`, for which the AC50 was 59 µM (active) in assay [30], 9.16 µM (active) at Paired box protein Pax-8, 54.7 µM (active) in assay [31] and 26.4 µM (active) in assay [32].
In the case of `Nc1c(C(O)(C(F)(F)F)C(F)(F)F)ccc2ccccc12`, the half-maximal inhibitory concentration (IC50) in assay [33] was > 50 µM (not active).

(Values after ChEMBL document CHEMBL1201862, “PubChem BioAssay data set” (2004).)
